The assay deals with FtCCAP (Francisella tularensis class C acid phosphatase) (Francisella tularensis, UniProt Q5NH51). Description: biochemical.

Structures are written as SMILES.

Chain of FtCCAP (Francisella tularensis class C acid phosphatase) (Q5NH51 22-247 limits assumed): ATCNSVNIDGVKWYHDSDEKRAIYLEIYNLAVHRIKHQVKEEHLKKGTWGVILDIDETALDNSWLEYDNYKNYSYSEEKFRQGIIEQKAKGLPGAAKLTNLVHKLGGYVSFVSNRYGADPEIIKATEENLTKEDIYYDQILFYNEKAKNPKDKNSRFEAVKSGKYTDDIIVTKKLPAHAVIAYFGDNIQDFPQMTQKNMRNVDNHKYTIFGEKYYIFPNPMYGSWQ

In general, Ki refers to the dissociation constant of the complex between target and ligand, obtained from inhibition or displacement. Lower therefore signals a stronger hold on the target. Compound `Nc1ncnc2c1ncn2[C@@H]1O[C@H](COP(O)(O)=S)[C@@H](O)[C@H]1O` [AMPS] returned a Ki of 300 ± 30 nM.
